Laboratory results: ChEMBL document CHEMBL5512607, “Journey of Von Hippel-Lindau (VHL) E3 ligase in PROTACs design: From VHL ligands to VHL-based degraders” (Eur J Med Chem, 2024)

How the values were obtained:
[1] = tested on: von Hippel-Lindau disease tumor suppressor/Epidermal growth factor receptor (Homo sapiens), P00533+P40337 [L858R,T790M]; experiment: PROTAC activity at VHL/EGFR L858R/T790M double mutant in human NCI-H1975 cells assessed as maximal degradation of EGFR incubated for 24 hrs by immunoblotting analysis relative to control; type: cell-based
[2] = biological target: von Hippel-Lindau disease tumor suppressor/Bromodomain-containing protein 4 (Homo sapiens, UniProt O60885+P40337); experiment: PROTAC activity at human VHL/BRD4 in human HeLa cells assessed as degradation of BRD4 incubated for 24 hrs by Western blot analysis; type: cell-based
Sequence of von Hippel-Lindau disease tumor suppressor/Bromodomain-containing protein 4 (Homo sapiens, UniProt O60885+P40337) (P40337 whole entry, looked up, other chains not shown): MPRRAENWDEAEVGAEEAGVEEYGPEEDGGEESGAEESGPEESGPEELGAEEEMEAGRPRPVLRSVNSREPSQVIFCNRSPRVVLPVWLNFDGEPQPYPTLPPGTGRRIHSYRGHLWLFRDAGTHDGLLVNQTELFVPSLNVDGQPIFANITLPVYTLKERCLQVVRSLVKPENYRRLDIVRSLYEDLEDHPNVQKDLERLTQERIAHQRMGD

[3] = biological target: T1, von Hippel-Lindau disease tumor suppressor (Homo sapiens, UniProt P40337); experiment: Binding affinity to VHL (unknown origin) assessed as dissociation constant by fluorescence polarization assay
T1 sequence (P40337 whole entry): as the sequence (P40337 whole entry, looked up, other chains not shown) above

[4] = PROTAC activity at VHL/N-terminal His-tagged human p38alpha expressed in […] assessed as p38alpha degradation
[5] = tested on: von Hippel-Lindau disease tumor suppressor/Mitogen-activated protein kinase 14; experiment: PROTAC activity at VHL/N-terminal His-tagged human p38alpha expressed in […] assessed as maximal degradation relative to control
[6] = biological target: T2, von Hippel-Lindau disease tumor suppressor/Bromodomain-containing protein 2 (Homo sapiens, UniProt P25440+P40337); experiment: PROTAC activity at VHL/BRD2 in human 22Rv1 cells assessed as induction of BRD2 degradation by Immunoblot analysis; type: cell-based
[7] = biological target: T3, von Hippel-Lindau disease tumor suppressor/Bromodomain-containing protein 3 (Homo sapiens, UniProt Q15059+P40337); experiment: PROTAC activity at VHL/BRD3 in human 22Rv1 cells assessed as induction of BRD3 degradation by Immunoblot analysis; type: cell-based
Target sequence in this assay (Q15059 whole entry): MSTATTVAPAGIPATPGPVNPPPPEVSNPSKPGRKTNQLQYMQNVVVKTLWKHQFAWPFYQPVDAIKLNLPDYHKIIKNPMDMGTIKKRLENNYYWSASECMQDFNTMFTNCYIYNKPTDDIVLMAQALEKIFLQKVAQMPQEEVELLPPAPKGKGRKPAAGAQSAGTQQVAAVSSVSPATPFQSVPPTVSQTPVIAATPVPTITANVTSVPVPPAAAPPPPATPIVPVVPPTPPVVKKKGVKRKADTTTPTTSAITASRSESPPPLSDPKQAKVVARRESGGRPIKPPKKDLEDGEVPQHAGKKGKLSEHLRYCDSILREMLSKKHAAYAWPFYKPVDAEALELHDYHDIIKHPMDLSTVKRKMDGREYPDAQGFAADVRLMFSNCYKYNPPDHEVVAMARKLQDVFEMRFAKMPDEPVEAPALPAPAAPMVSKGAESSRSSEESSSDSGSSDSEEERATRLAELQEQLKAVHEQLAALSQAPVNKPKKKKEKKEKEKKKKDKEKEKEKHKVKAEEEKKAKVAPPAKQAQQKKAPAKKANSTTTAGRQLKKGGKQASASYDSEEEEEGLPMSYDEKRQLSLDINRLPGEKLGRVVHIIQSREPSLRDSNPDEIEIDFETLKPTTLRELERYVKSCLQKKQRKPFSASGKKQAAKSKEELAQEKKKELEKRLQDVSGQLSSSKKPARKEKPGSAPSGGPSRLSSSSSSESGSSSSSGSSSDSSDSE
Target sequence in this assay (P40337 whole entry): as the sequence (P40337 whole entry, looked up, other chains not shown) above

CWR22R = experiment: Antiproliferative activity against human 22Rv1 cells assessed as reduction in cell viability incubated for 48 hrs by MTT assay; type: functional, cell-based; conditions: 22Rv1, 48 h
[8] = biological target: von Hippel-Lindau disease tumor suppressor/Bromodomain-containing protein 4; experiment: PROTAC activity at VHL/BRD4 in human 22Rv1 cells assessed as induction of BRD4 degradation by Immunoblot analysis
[9] = tested on: von Hippel-Lindau disease tumor suppressor/Bromodomain-containing protein 4; experiment: PROTAC activity at VHL/BRD4 in human VCaP cells assessed as maximum degradation of BRD4 by Western blot analysis relative to control
[10] = biological target: T4, Von Hippel-Lindau disease tumor suppressor/Elongin B/Elongin C (Homo sapiens, UniProt P40337); experiment: Inhibition of VHL/Elongin B/Elogin C (unknown origin) using FAM-DEALA-Hyp-YIPD as substrate by fluorescence polarization assay; type: protein-complex assay
T4 sequence (P40337 whole entry, looked up): as the sequence (P40337 whole entry, looked up, other chains not shown) above

[11] = biological target: T5, von Hippel-Lindau disease tumor suppressor/Estrogen receptor (Homo sapiens, UniProt P03372+P40337); experiment: PROTAC activity at VHL E3 ligase/ERalpha in human T47D cells assessed as maximal degradation of ERalpha protein level at 7.7 nM by Western blot analysis relative to control; type: cell-based
Target sequence in this assay (P03372 whole entry, looked up): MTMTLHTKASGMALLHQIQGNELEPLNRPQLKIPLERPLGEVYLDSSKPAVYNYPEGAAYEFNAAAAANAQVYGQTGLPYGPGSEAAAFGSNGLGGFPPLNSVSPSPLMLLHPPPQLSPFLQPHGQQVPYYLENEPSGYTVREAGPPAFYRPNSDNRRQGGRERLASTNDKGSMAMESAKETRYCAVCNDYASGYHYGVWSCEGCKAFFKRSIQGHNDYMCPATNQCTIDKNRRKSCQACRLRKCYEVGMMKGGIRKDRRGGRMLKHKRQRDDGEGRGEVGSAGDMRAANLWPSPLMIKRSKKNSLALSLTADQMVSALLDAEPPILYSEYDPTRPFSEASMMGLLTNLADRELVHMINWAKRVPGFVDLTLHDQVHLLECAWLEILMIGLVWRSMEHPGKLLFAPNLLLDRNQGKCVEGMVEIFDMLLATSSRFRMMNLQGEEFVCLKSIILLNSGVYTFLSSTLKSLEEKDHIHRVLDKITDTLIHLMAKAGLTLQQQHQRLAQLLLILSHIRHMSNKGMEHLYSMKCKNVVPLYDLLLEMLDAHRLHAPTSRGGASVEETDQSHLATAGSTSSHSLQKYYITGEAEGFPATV
Target sequence in this assay (P40337 whole entry, looked up): as the sequence (P40337 whole entry, looked up, other chains not shown) above

[12] = biological target: T5, von Hippel-Lindau disease tumor suppressor/Estrogen receptor; experiment: PROTAC activity at VHL E3 ligase/ERalpha in human T47D cells assessed as maximal degradation of ERalpha protein level at 10.3 nM by Western blot analysis relative to control; type: cell-based
Target sequence in this assay (P03372 whole entry, looked up): as the sequence (P03372 whole entry, looked up) above
Target sequence in this assay (P40337 whole entry, looked up): as the sequence (P40337 whole entry, looked up, other chains not shown) above

[13] = biological target: T5, von Hippel-Lindau disease tumor suppressor/Estrogen receptor; experiment: PROTAC activity at VHL E3 ligase/ERalpha in human MCF7 cells assessed as reduction in ERalpha protein level by Western blot analysis; type: cell-based
[14] = biological target: T6, von Hippel-Lindau disease tumor suppressor/Androgen receptor (Homo sapiens, UniProt P10275+P40337); experiment: PROTAC activity at VHL/AR in human VCaP cells assessed as induction of AR degradation by Western blot analysis; type: cell-based
Target sequence in this assay (P10275 whole entry): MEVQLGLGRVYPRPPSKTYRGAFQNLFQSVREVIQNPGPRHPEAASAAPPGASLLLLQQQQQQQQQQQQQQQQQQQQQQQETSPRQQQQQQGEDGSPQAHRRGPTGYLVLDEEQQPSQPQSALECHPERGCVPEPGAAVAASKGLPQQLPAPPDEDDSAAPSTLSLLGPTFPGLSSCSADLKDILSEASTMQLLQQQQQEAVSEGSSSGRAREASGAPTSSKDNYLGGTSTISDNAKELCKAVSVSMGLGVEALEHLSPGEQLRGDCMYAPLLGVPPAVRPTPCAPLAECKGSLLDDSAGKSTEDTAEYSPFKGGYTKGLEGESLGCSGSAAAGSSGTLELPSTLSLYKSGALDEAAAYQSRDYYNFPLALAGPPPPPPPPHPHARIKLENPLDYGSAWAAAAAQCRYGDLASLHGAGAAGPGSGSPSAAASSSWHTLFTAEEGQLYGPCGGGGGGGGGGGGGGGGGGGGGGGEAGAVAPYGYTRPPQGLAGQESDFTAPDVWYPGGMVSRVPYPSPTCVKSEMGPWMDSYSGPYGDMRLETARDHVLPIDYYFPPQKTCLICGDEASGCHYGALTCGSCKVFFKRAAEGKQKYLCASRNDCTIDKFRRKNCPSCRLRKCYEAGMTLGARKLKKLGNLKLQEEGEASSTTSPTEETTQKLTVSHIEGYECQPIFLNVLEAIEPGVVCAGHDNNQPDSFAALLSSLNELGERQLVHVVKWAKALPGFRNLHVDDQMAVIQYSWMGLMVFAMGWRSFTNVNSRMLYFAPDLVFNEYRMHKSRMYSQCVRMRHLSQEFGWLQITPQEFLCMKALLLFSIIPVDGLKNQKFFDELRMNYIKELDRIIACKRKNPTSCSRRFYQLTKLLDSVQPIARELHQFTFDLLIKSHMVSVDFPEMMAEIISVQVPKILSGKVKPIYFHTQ
Target sequence in this assay (P40337 whole entry): as the sequence (P40337 whole entry, looked up, other chains not shown) above

[15] = biological target: T6, von Hippel-Lindau disease tumor suppressor/Androgen receptor; experiment: PROTAC activity at VHL/AR-V7 in human 22Rv1 cells assessed as induction of AR degradation by Western blot analysis; type: cell-based
[16] = biological target: T1, von Hippel-Lindau disease tumor suppressor; experiment: Inhibition of NanoLuc-fused VHL (unknown origin) transfected in live HEK293 cells using NanoGlo as substrate incubated for 1 hrs by tracer based NanoBRET assay; type: cell-based
[17] = biological target: T1, von Hippel-Lindau disease tumor suppressor; experiment: Binding affinity to NanoLuc-fused VHL (unknown origin) transfected in live HEK293 cells using NanoGlo as substrate assessed as dissociation constant incubated for 1 hrs by tracer based NanoBRET assay; type: cell-based
[18] = biological target: T4, Von Hippel-Lindau disease tumor suppressor/Elongin B/Elongin C; experiment: Inhibition of VHL (unknown origin) (1 to 213 residues)/ElonginC/ElonginB expressed in Escherichia coli BL21 (DE3) using (FAM)-labeled HIF-1alpha peptide as substrate incubated for 2 hrs by fluorescence polarization assay
[19] = biological target: T1, von Hippel-Lindau disease tumor suppressor; experiment: Inhibition of VHL (unknown origin)
[20] = biological target: T6, von Hippel-Lindau disease tumor suppressor/Androgen receptor; experiment: PROTAC activity at VHL/AR in human LNCaP cells assessed as induction of AR degradation by Western blot analysis; type: cell-based
Target sequence in this assay (P10275 whole entry): as the sequence (P10275 whole entry) above
Target sequence in this assay (P40337 whole entry): as the sequence (P40337 whole entry, looked up, other chains not shown) above

[21] = biological target: T6, von Hippel-Lindau disease tumor suppressor/Androgen receptor; experiment: PROTAC activity at VHL/AR in human LNCaP cells assessed as maximum degradation of AR at 75 uM incubated for 16 hrs by Western blot analysis relative to control; type: cell-based
Target sequence in this assay (P10275 whole entry, looked up): as the sequence (P10275 whole entry) above
Target sequence in this assay (P40337 whole entry, looked up): as the sequence (P40337 whole entry, looked up, other chains not shown) above

[22] = biological target: T2, von Hippel-Lindau disease tumor suppressor/Bromodomain-containing protein 2; experiment: PROTAC activity at human VHL/BRD2 in human HeLa cells assessed as […] incubated for 16 hrs by Western blot analysis; type: cell-based
[23] = biological target: T3, von Hippel-Lindau disease tumor suppressor/Bromodomain-containing protein 3; experiment: PROTAC activity at human VHL/BRD3 in human HeLa cells assessed as […] incubated for 16 hrs by Western blot analysis; type: cell-based
Target sequence in this assay (Q15059 whole entry): as the sequence (Q15059 whole entry) above
Target sequence in this assay (P40337 whole entry): as the sequence (P40337 whole entry, looked up, other chains not shown) above

[24] = biological target: T2, von Hippel-Lindau disease tumor suppressor/Bromodomain-containing protein 2; experiment: PROTAC activity at human VHL/BRD2 in human HeLa cells assessed as maximum degradation of BRD2 measured after 18 hrs by Western blot analysis relative to control; type: cell-based
[25] = biological target: T3, von Hippel-Lindau disease tumor suppressor/Bromodomain-containing protein 3; experiment: PROTAC activity at human VHL/BRD3 in human HeLa cells assessed as maximum degradation of BRD3 measured after 18 hrs by Western blot analysis relative to control; type: cell-based
[26] = PROTAC activity at human VHL/BRD4 in human HeLa cells assessed as degradation of BRD4 incubated for 16 hrs by Western blot analysis
[27] = tested on: von Hippel-Lindau disease tumor suppressor/Bromodomain-containing protein 4; experiment: PROTAC activity at human VHL/BRD4 in human HeLa cells assessed as maximum degradation of BRD4 measured after 18 hrs by Western blot analysis relative to control

Compound: Cc1ncsc1-c1ccc(CNC(=O)[C@H]2C[C@H](O)CN2C(=O)[C@H](NC(=O)CCCCCOCCCCOCCCCOc2cc3ncnc(Nc4ccc(F)c(Cl)c4)c3cc2NC(=O)/C=C/CN(C)C)C(C)(C)C)cc1
- Emax [1]: 79.1%

Compound: CC(=O)N[C@H](C(=O)N1C[C@H](O)[C@@H](F)[C@H]1C(=O)Nc1ccc(-c2scnc2C)cc1)C(C)(C)C
- DC50 [2]: 10 nM

Compound: Cc1ncsc1-c1ccc([C@H](C)NC(=O)[C@@H]2C[C@@H](O)CN2C(=O)[C@H](NC(=O)C2(C#N)CC2)C(C)(C)C)cc1F
- Kd [3]: 186 nM

Compound: COc1cc2c(Oc3ccc(NC(=O)C4(C(=O)Nc5ccc(F)cc5)CC4)cc3F)ccnc2cc1OCCOCCOCCOc1cc(-c2scnc2C)ccc1CNC(=O)[C@@H]1C[C@@H](O)CC1C(=O)[C@H](C(C)C)C1Cc2ccccc2C1=O (stereo partly specified)
- DC50 [4]: 66.2 nM
- Emax [5]: 99.4%

Compound: COc1cc(-c2scnc2C)c(F)cc1CNC(=O)[C@@H]1C[C@@H](O)CN1C(=O)[C@H](NC(=O)C1(F)CC1)C(C)(C)C
- Kd [3]: 134 nM

Compound: Cc1cc(-c2scnc2C)ccc1CNC(=O)[C@@H]1C[C@@H](O)CN1C(=O)[C@H](NC(=O)C1(C#N)CC1)C(C)(C)C
- Kd [3]: 149 nM

Compound: Cc1ncsc1-c1cc2c(cc1F)[C@@H](NC(=O)[C@@H]1C[C@@H](O)CN1C(=O)[C@H](NC(=O)C1(F)CC1)C(C)(C)C)CCCC2
- Kd [3]: 1040 nM

Compound: Cc1ncsc1-c1ccc([C@H](C)NC(=O)[C@@H]2C[C@@H](O)CN2C(=O)[C@@H](NC(=O)COCCOCCOCCNC(=O)C[C@@H]2N=C(c3ccc(Cl)cc3)c3c(sc(C)c3C)-n3c(C)nnc32)C(C)(C)C)cc1
- DC50 [6]: < 5 nM
- DC50 [7]: < 5 nM
- EC50 (CWR22R): 90 nM
- DC50 [8]: < 5 nM
- Emax [9]: > 99%

Compound: Cc1ncsc1-c1ccc([C@H](C)NC(=O)[C@@H]2C[C@@H](O)CN2C(=O)[C@H](NC(=O)C2(F)CC2)C(C)(C)C)cc1F
- Kd [3]: 73 nM

Compound: Cc1cc(CC(=O)N2C[C@H](O)C[C@H]2C(=O)NCc2ccc(-c3ocnc3C)cc2)on1
- IC50 [10]: 12700 nM

Compound: Cc1ncsc1-c1ccc([C@H](C)NC(=O)[C@@H]2C[C@@H](O)CN2C(=O)[C@@H](NC(=O)CCCCOc2ccc(CCNC(=O)c3ccc(C(=O)c4c(-c5ccc(O)cc5)sc5cc(O)ccc45)cc3)cc2)C(C)(C)C)cc1
- Emax [11]: 98%
- Emax [12]: 98%

Compound: COc1cc2c(Oc3ccc(NC(=O)C4(C(=O)Nc5ccc(F)cc5)CC4)cc3F)ccnc2cc1OCCCCOCCCCOCC(=O)N[C@@H](C(=O)N1C[C@H](O)C[C@H]1C(=O)NCc1ccc(-c2scnc2C)cc1)C(C)(C)C
- DC50 [4]: 7.16 nM
- Emax [5]: 97.4%

Compound: Cc1ncsc1-c1ccc([C@H](C)NC(=O)[C@@H]2C[C@@H](O)CN2C(=O)[C@@H](NC(=O)CCCCOc2ccc(/C=C/NC(=O)c3ccc(C(=O)c4c(-c5ccc(O)cc5)sc5cc(O)ccc45)cc3)cc2)C(C)(C)C)cc1
- DC50 [13]: 10 nM
- Emax [11]: > 95%

Compound: Cc1cc(-c2scnc2C)c(C)cc1CNC(=O)[C@@H]1C[C@@H](O)CN1C(=O)[C@H](NC(=O)C1(C#N)CC1)C(C)(C)C
- Kd [3]: 528 nM

Compound: Cc1ncsc1-c1ccc(CNC(=O)[C@@H]2C[C@@H](O)CN2C(=O)[C@H](NC(=O)C2(C#N)CC2)C(C)(C)C)cc1F
- Kd [3]: 97 nM

Compound: Cc1cc(-c2scnc2C)ccc1[C@H](C)NC(=O)[C@@H]1C[C@@H](O)CN1C(=O)[C@H](NC(=O)C1(F)CC1)C(C)(C)C
- Kd [3]: 37 nM

Compound: CC(=O)N[C@H](C(=O)N1C[C@H](O)[C@H](F)[C@H]1C(=O)Nc1ccc(-c2scnc2C)cc1)C(C)(C)C
- DC50 [2]: 1 nM

Compound: Cc1ncsc1-c1ccc([C@@H](C)NC(=O)[C@H]2C[C@H](O)CN2C(=O)[C@H](NC(=O)CCCCCNC(=O)COc2ccccc2-c2csc(N3CCOCC3)n2)C(C)(C)C)cc1
- DC50 [14]: 2000 nM
- DC50 [15]: 370 nM

Compound: CC(=O)N[C@H](C(=O)N1C[C@H](O)C[C@H]1C(=O)N[C@@H](C)c1ccc(-c2scnc2C)cc1)C(C)(C)C
- IC50 [16]: 130 nM
- Kd [17]: 63 nM

Compound: Cc1ncsc1-c1ccc(CNC(=O)[C@@H]2C[C@@H](O)CN2C(=O)c2cccc(N)c2C)cc1
- IC50 [18]: 10100 nM

Compound: Cc1cc(-c2scnc2C)ccc1[C@H](C)NC(=O)[C@@H]1C[C@@H](O)CN1C(=O)[C@H](NC(=O)C1(C#N)CC1)C(C)(C)C
- Kd [3]: 86 nM

Compound: Cc1cc(CC(=O)N2C[C@H](O)C[C@H]2C(=O)NCc2cccc(Cl)c2)on1
- IC50 [19]: 117 nM

Compound: Cc1cc([C@H](C(=O)N2C[C@H](S(=O)(=O)F)C[C@H]2C(=O)N[C@@H](CC(=O)N2CCC(C#Cc3ccc(C(=O)N[C@H]4C(C)(C)[C@H](Oc5ccc(C#N)c(Cl)c5)C4(C)C)cc3)CC2)c2ccc(-c3scnc3C)cc2)C(C)C)on1
- DC50 [20]: 212 nM
- Emax [21]: 59%

Compound: COc1cc(-c2scnc2C)cc(OC)c1CNC(=O)[C@@H]1C[C@@H](O)CN1C(=O)[C@H](NC(=O)C1(C#N)CC1)C(C)(C)C
- Kd [3]: 6240 nM

Compound: COc1cccc(/C=C2\Oc3cc(OCC(=O)N4CC(O)C[C@H]4C(=O)O)ccc3C2=O)c1 (stereo partly specified)
- IC50 [18]: 2290 nM

Compound: O=C(NCc1ccc(Cl)cc1)[C@@H]1C[C@@H](O)CN1C(=O)c1ccccc1Cl
- IC50 [10]: 52000 nM

Compound: Cc1cc([C@H](C(=O)N2C[C@H](S(=O)(=O)F)C[C@H]2C(=O)N[C@@H](CC(=O)N2CCC(C#Cc3ccc(C(=O)N[C@H]4C(C)(C)[C@H](Oc5ccc(C#N)c(C(F)(F)F)c5)C4(C)C)cc3)CC2)c2ccc(-c3scnc3C)cc2)C(C)C)on1
- DC50 [20]: 527 nM
- Emax [21]: 54%

Compound: Cc1ncsc1-c1ccc([C@H](C)NC(=O)[C@H]2C[C@H](O)CN2C(=O)[C@H](NC(=O)COCCOCCOCCNC(=O)C[C@@H]2N=C(c3ccc(Cl)cc3)c3c(sc(C)c3C)-n3c(C)nnc32)C(C)(C)C)cc1
- DC50 [22]: 40 nM
- DC50 [23]: 100 nM
- Emax [24]: 98%
- Emax [25]: 100%
- DC50 [26]: 3 nM
- Emax [27]: 100%

Compound: CC(=O)N[C@H](C(=O)N1C[C@H](O)C[C@H]1C(=O)N[C@H](C)c1ccc(-c2scnc2C)cc1)C(C)(C)C
- IC50 [16]: 26000 nM
